Values joined by “and” are separate entries in the source; they are usually repeats but may differ in a detail not shown here. Identical values can stand only once. Toxic doses and inconclusive results are not listed. No stated cut-off is given here; in the data, active means T/C of 150% or more; inactive means T/C below 125%.
Tested on: L1210 leukemia ip in BDF1 mice, survival T/C
Assay: NCI In Vivo Anticancer Drug Screen. Data for tumor model L1210 Leukemia (intraperitoneal) in B6D2F1 (BDF1) mice
Details: endpoint: mean survival time, higher = longer survival
Method in brief: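 Survival endpoint. Drug-treated group vs vehicle group, expressed as T divided by C. Tumor passaged by transplantation.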

[1] = dose: 100.0 mg/kg/injection, schedule: Q01DX001 (ip), vehicle: saline
[2] = dose: 200.0 mg/kg/injection, schedule: Q01DX001 (ip), vehicle: saline
[3] = dose: 200.0 mg/kg/injection, schedule: Q04DX003 (ip), vehicle: saline with Tween-80
[4] = dose: 100.0 mg/kg/injection, schedule: Q04DX003 (ip), vehicle: saline
[5] = dose: 100.0 mg/kg/injection, schedule: Q04DX002 (ip), vehicle: Klucel (hydroxypropylcellulose) (HPC)
[6] = dose: 200.0 mg/kg/injection, schedule: Q04DX002 (ip), vehicle: Klucel (hydroxypropylcellulose) (HPC)
[7] = dose: 400.0 mg/kg/injection, schedule: Q04DX002 (ip), vehicle: Klucel (hydroxypropylcellulose) (HPC)
[8] = dose: 100.0 mg/kg/injection, schedule: Q01DX009 (ip), vehicle: Klucel (hydroxypropylcellulose) (HPC)
[9] = dose: 100.0 mg/kg/injection, schedule: Q04DX003 (ip), vehicle: Klucel (hydroxypropylcellulose) (HPC)
[10] = dose: 200.0 mg/kg/injection, schedule: Q04DX003 (ip), vehicle: Klucel (hydroxypropylcellulose) (HPC)
[11] = dose: 50.0 mg/kg/injection, schedule: Q01DX001 (ip), vehicle: saline
[12] = dose: 400.0 mg/kg/injection, schedule: Q01DX001 (ip), vehicle: saline
[13] = dose: 100.0 mg/kg/injection, schedule: Q01DX001 (ip), vehicle: carboxymethylcellulose (CMC)
[14] = dose: 200.0 mg/kg/injection, schedule: Q01DX001 (ip), vehicle: carboxymethylcellulose (CMC)
[15] = dose: 400.0 mg/kg/injection, schedule: Q01DX001 (ip), vehicle: carboxymethylcellulose (CMC)
[16] = dose: 400.0 mg/kg/injection, schedule: Q04DX003 (ip), vehicle: Klucel (hydroxypropylcellulose) (HPC)

Measured: T/C

CCCCCCCCCCNC(=O)CI
inactive: [1] 100 % of control | [2] 94 % of control

N#CC(C#N)=Cc1cc2c3c(c1)CCCN3CCC2
inactive: dose: 50.0 mg/kg/injection, schedule: Q04DX003 (ip), vehicle: saline with Tween-80 103 % of control | dose: 100.0 mg/kg/injection, schedule: Q04DX003 (ip), vehicle: saline with Tween-80 109 % of control | [3] 92 % of control | dose: 400.0 mg/kg/injection, schedule: Q04DX003 (ip), vehicle: saline with Tween-80 98 % of control

CCCCOP(=O)(OCCCC)SCl
inactive: dose: 100.0 mg/kg/injection, schedule: Q04DX002 (ip), vehicle: saline with Tween-80 95 % of control | dose: 200.0 mg/kg/injection, schedule: Q04DX002 (ip), vehicle: saline with Tween-80 92 % of control

CCCCOC(=S)SCC(=O)O
inactive: dose: 100.0 mg/kg/injection, schedule: Q04DX002 (ip), vehicle: other 103 % of control | dose: 200.0 mg/kg/injection, schedule: Q04DX002 (ip), vehicle: other 106 % of control | dose: 400.0 mg/kg/injection, schedule: Q04DX002 (ip), vehicle: other 94 % of control

CC1=C(CO)C(=O)O[C@@H]([C@@H](C)[C@H]2CC[C@H]3[C@@H]4C[C@H]5O[C@]56[C@@H](O)C=CC(=O)[C@]6(C)[C@H]4CC[C@]23C)C1
inactive: dose: 10.0 mg/kg/injection, schedule: Q01DX Z (ip), vehicle: carboxymethylcellulose (CMC) 98 % of control | dose: 20.0 mg/kg/injection, schedule: Q01DX Z (ip), vehicle: carboxymethylcellulose (CMC) 101 % of control | dose: 50.0 mg/kg/injection, schedule: Q01DX001 (sc), vehicle: steriod suspending solution 103 % of control | dose: 100.0 mg/kg/injection, schedule: Q01DX001 (sc), vehicle: steriod suspending solution 100 % of control | dose: 200.0 mg/kg/injection, schedule: Q01DX001 (sc), vehicle: steriod suspending solution 103 % of control

Nc1nc(Nc2ccc(C3=NCCN3)cc2)nc(Nc2ccc(C3=NCCN3)cc2)n1
inactive: dose: 1.2 mg/kg/injection, schedule: Q01DX Z (ip), vehicle: methylcellulose (MC) 112 % of control | dose: 1.9 mg/kg/injection, schedule: Q01DX Z (ip), vehicle: methylcellulose (MC) 123 % of control | dose: 3.75 mg/kg/injection, schedule: Q01DX Z (ip), vehicle: methylcellulose (MC) 117 % of control | dose: 15.0 mg/kg/injection, schedule: Q01DX Z (ip), vehicle: methylcellulose (MC) 120 % of control | dose: 16.5 mg/kg/injection, schedule: Q01DX009 (ip), vehicle: saline 108 % of control | dose: 25.0 mg/kg/injection, schedule: Q01DX009 (ip), vehicle: saline 120 % of control and 122 % of control | dose: 25.0 mg/kg/injection, schedule: Q04DX003 (ip), vehicle: saline 112 % of control | dose: 37.5 mg/kg/injection, schedule: Q01DX009 (ip), vehicle: saline 114 % of control and 115 % of control | dose: 50.0 mg/kg/injection, schedule: Q01DX009 (ip), vehicle: saline 123 % of control | dose: 50.0 mg/kg/injection, schedule: Q04DX003 (ip), vehicle: saline 109 % of control | dose: 60.0 mg/kg/injection, schedule: Q01DX Z (oral), vehicle: carboxymethylcellulose (CMC) 100 % of control | [1] 117 % of control | [4] 91 % of control | dose: 120.0 mg/kg/injection, schedule: Q01DX Z (oral), vehicle: carboxymethylcellulose (CMC) 95 % of control

Cc1cc(C)c(NC(=O)C2CCCCC2C(=O)O)c(C)c1 (stereo unspecified)
inactive: [5] 99 % of control | [6] 92 % of control | [7] 99 % of control

CC(NC(C)c1ccccc1)c1ccccc1 (stereo unspecified)
inactive: dose: 50.0 mg/kg/injection, schedule: Q01DX009 (ip), vehicle: Klucel (hydroxypropylcellulose) (HPC) 102 % of control | [8] 106 % of control | [9] 104 % of control | [10] 100 % of control

O=C(/C=C(\S)c1ccccc1)c1ccccc1
inactive: [11] 101 % of control | [1] 104 % of control | [2] 98 % of control | [12] 101 % of control

Brc1ccc[n+](Cc2ccccc2)c1
inactive: dose: 75.0 mg/kg/injection, schedule: Q01DX001 (ip), vehicle: saline 98 % of control

CCCCCCCCOC(=O)Nc1ccc(S(=O)(=O)CC)cc1
inactive: [13] 91 % of control | [14] 89 % of control | [15] 89 % of control

O=C(Cc1ccccc1)c1ccc(O)cc1
inactive: [9] 102 % of control | [10] 102 % of control | [16] 88 % of control

O=C1NC(=O)C(c2cc(Cl)co2)N1 (stereo unspecified)
inactive: [9] 105 % of control | [10] 108 % of control | [16] 101 % of control

C=CCc1c[nH]c(=O)[nH]c1=O
inactive: dose: 50.0 mg/kg/injection, schedule: Q04DX003 (ip), vehicle: Klucel (hydroxypropylcellulose) (HPC) 100 % of control | [9] 108 % of control and 91 % of control | [10] 97 % of control and 100 % of control | [16] 90 % of control

COc1cc2c(c(OC)c1OC)-c1ccc(SC)c(=O)cc1C(N=C(NC1OCC(OC(C)=O)C(OC(C)=O)C1OC(C)=O)SN(NC(=O)OCc1ccccc1)C(=O)OCc1ccccc1)CC2 (stereo unspecified)
inactive: dose: 25.0 mg/kg/injection, schedule: Q01DX001 (ip), vehicle: saline with Tween-80 95 % of control | dose: 50.0 mg/kg/injection, schedule: Q01DX001 (ip), vehicle: saline with Tween-80 95 % of control | dose: 100.0 mg/kg/injection, schedule: Q01DX001 (ip), vehicle: saline with Tween-80 100 % of control

CN(C)c1ccc(/C=C/C(=O)/C=C/c2ccc(N(C)C)cc2)cc1
inactive: [8] 96 % of control | dose: 200.0 mg/kg/injection, schedule: Q01DX009 (ip), vehicle: Klucel (hydroxypropylcellulose) (HPC) 95 % of control | dose: 400.0 mg/kg/injection, schedule: Q01DX009 (ip), vehicle: Klucel (hydroxypropylcellulose) (HPC) 101 % of control

COc1ccccc1C(=S)N1CCCCC1
inactive: [4] 97 % of control | dose: 200.0 mg/kg/injection, schedule: Q04DX003 (ip), vehicle: saline 89 % of control | dose: 400.0 mg/kg/injection, schedule: Q04DX003 (ip), vehicle: saline 92 % of control

O=C(Nc1cnccn1)C(F)(F)F
inactive: [1] 105 % of control | [2] 97 % of control | [12] 105 % of control

O=c1o[nH]c(-c2ccccc2)c1-c1ccccc1
inactive: dose: 1.56 mg/kg/injection, schedule: Q04DX003 (ip), vehicle: saline 98 % of control | dose: 3.12 mg/kg/injection, schedule: Q04DX003 (ip), vehicle: saline 102 % of control | dose: 6.25 mg/kg/injection, schedule: Q04DX003 (ip), vehicle: saline 102 % of control | dose: 12.5 mg/kg/injection, schedule: Q04DX003 (ip), vehicle: saline 94 % of control | [3] 93 % of control

CCCCCCCCCCC1Cc2ccccc2C1
inactive: [11] 95 % of control | [1] 98 % of control | [2] 104 % of control | [12] 93 % of control

O=C(Nc1ccc(Br)cc1)c1cc(Br)ccc1O
inactive: dose: 50.0 mg/kg/injection, schedule: Q01DX001 (ip), vehicle: carboxymethylcellulose (CMC) 98 % of control | [13] 102 % of control | [5] 103 % of control | [14] 89 % of control | [6] 92 % of control | [15] 94 % of control | [7] 95 % of control

O=C(Oc1c(Cl)cc(S(=O)(=O)F)cc1Cl)c1ccccc1Cl
inactive: [5] 92 % of control | [6] 89 % of control | [7] 89 % of control
